These results are taken from patent publication US4988706A (priority 1988, dated 1991).

Counter-ions that a name gives are not always drawn. Like-named read-outs stand apart in the source and are kept apart here.

Experiment [1] deals with muscarinic receptors (rat cerebral cortex). It counts as binding, Hooded Lister rats. The note with it: displacement of 0.27 nM 3H-QNB, rat cerebral cortex membranes, 50 mM tris pH 7.7, 37° C., 30 min.
The target is the same in experiment [2]. Description: Radio ligand binding: displacement of the muscarinic agonist 3H-Oxotremorine-M (3H-OXO-M). Further details: species or system Hooded Lister rats. The note with it: displacement of 2nM 3H-OXO-M, rat cerebral cortex membranes, 2 mM magnesium chloride, 50 mM tris pH 7.7, 37° C., 30 min.

As a reminder, the IC50 is the concentration needed to halve the response being measured. Consider `FCc1noc(C23CCCN(CC2)C3)n1` (racemic) [Example E1, (±) 5-(3-Fluoromethyl-1,2,4-oxadiazol-5-yl)-1azabicyclo[3.2.l]octane oxalate salt], for which the IC50 was 900 nM in experiment [1] and 6.9 nM in experiment [2].
For `Nc1noc(C23CCCN(CC2)C3)n1` (racemic) [Example E2, (±) 5-(3-Amino-1,2,4-oxadiazol-5-yl)-1-azabicyclo-[3.2.11octane] the same measures were 2000 nM and 11 nM.
For `Nc1noc(C23CCN(CC2)C3)n1` [Example E4] the same measures were 2250 nM and 32.5 nM.
Taken in the same sequence, the figures for `FCc1noc(C23CCN(CC2)C3)n1` [Example E5, 4-(3-Fluoromethyl-1,2,4-oxadiazol-5-yl)-1-azabicyclo[2.2.11heptane oxalate salt] were 19500 nM and 140 nM.
